From US7723332B2, “Aryl sulfonamides useful for modulation of the progesterone receptor” (Wyeth LLC, priority 2007, dated 2010) come the findings set out here.

For orientation: IC50 means the midpoint of a concentration-inhibition curve.

One assay relates to alkaline phosphatase activity in T47D cells. Description: Effects of progestins and antiprogestins on alkaline phosphatase activity in T47D cells. In kind it is cell-based. To be noted: Homo sapiens; T47D alkaline phosphatase assay; antagonist mode in the presence of 1 nM progesterone; 24 hours. As to the method: Effects of Progestins and Antiprogestins on Alkaline Phosphatase Activity in T47D Cells
This example was performed to identify progestins or antiprogestins by determining a compound's effect on alkaline phosphatase activity in T47D cells.
Culture medium: DMEM:F12 (1:1) (GIBCO, BRL) supplemented with 5% (v/v) charcoal stripped fetal bovine serum (not heat-inactivated), 100 U/mL penicillin, 100 μg/mL streptomycin, and 2 mM the GlutaMax™ reagent (GIBCO, BRL).
Alkaline phosphatase assay buffer: • I. 0.1M Tris-HCl, pH 9.8, containing 0.2% the Triton® X-100 reagent • II. 0.1 M Tris-HCl, pH 9.8, containing 4 mM p-nitrophenyl phosphate (Sigma).
Frozen T47D cells were thawed in a 37° C. water bath and diluted to 280,000 cells/mL in culture medium. To each well in a 96-well plate (Falcon, Becton Dickinson Labware), 180 μL of diluted cell suspension was added. Twenty μL of reference or test compounds diluted in the culture medium was then added to each well. When testing for progestin antagonist activity, reference antiprogestins or test compounds were added in the presence of 1 nM progesterone. The cells were incubated at 37° C. in a 5% CO2/humidified atmosphere for 24 hours. NOTE: For high throughput screening, one concentration of each compound was tested at 0.3 μg/mL. Based on an average molecular weight of 300 g/mol for the compounds in the library, the concentration was approximately 1 μM. Subsequently, active compounds were tested in dose response assays to determine EC50 and IC50.
At the end of treatment, the medium was removed from the plate. Fifty μL of assay buffer I was added to each well. The plates were shaken in a titer plate shaker for 15 minutes. 150 μL of assay buffer II was then added to each well. Optical density measurements were taken at 5 minute intervals for 30 minutes at a test wavelength of 405 nm.
For reference and test compounds, a dose response curve was generated for dose (X-axis) vs. the rate of enzyme reaction (slope) (Y-axis). Square root-transformed data was used for analysis of variance and nonlinear dose response curve fitting for both agonist and antagonist modes. Huber weighting was used to down-weight the effects of outliners. EC50 or IC50 values were calculated from the retransformed values. JMP software (SAS Institute, Inc.) was used for both one-way analysis of variance and non-4 linear dose response analysis in both single dose and dose response studies.
Progesterone and trimegestone are reference progestins known in the art and typically show an EC50 of about 0.1 nM to about 2.0 nM.
For the molecule `Cn1c(C#N)ccc1-c1ccc(S(=O)(=O)NC2CC2)c(C(F)(F)F)c1` [Example 27, 4-(5-cyano-1-methyl-1H-pyrrol-2-yl)-N-cyclopropyl-2-(trifluoromethyl)benzenesulfonamide], the IC50 was 38.2 nM. Take `Cn1c(C#N)ccc1-c1ccc(S(=O)(=O)NCC2CC2)c(F)c1` [Example 44, 4-(5-cyano-1-methyl-1H-pyrrol-2-yl)-N-(cyclopropylmethyl)-2-fluorobenzenesulfonamide]: the IC50 came to 45.6 nM. As for `Cn1c(C#N)ccc1-c1ccc(S(=O)(=O)NC2CCCCC2)cc1` [Example 15, 4-(5-cyano-1-methyl-1H-pyrrol-2-yl)-N-cyclohexylbenzenesulfonamide], the IC50 amounted to 58.9 nM. On to `Cn1c(C#N)ccc1-c1ccc(S(N)(=O)=O)c(OC(F)(F)F)c1` [Example 46, 4-(5-cyano-1-methyl-1H-pyrrol-2-yl)-2-(trifluoromethoxy)benzenesulfonamide], for which the IC50 was found to be 75.8 nM.

Regarding `Cn1c(C#N)ccc1-c1ccc(S(=O)(=O)NC2CC2)cc1F` [Example 38, 4-(5-cyano-1-methyl-1H-pyrrol-2-yl)-N-cyclopropyl-3-fluorobenzenesulfonamide], the IC50 is 9.7 nM. Still for that read-out and setting: the figure for `CC(C)NS(=O)(=O)c1cc(F)c(-c2ccc(C#N)n2C)cc1F` [Example 60, 4-(5-cyano-1-methyl-1H-pyrrol-2-yl)-2,5-difluoro-N-isopropylbenzenesulfonamide] is 49.3 nM; for `CCN(CC)S(=O)(=O)c1ccc(-c2ccc(C#N)n2C)cc1` [Example 8, 4-(5-cyano-1-methyl-1H-pyrrol-2-yl)-N,N-diethylbenzenesulfonamide] it is 48.4 nM; for `CN(C)S(=O)(=O)c1ccc(-c2ccc(C#N)n2C)cc1C(F)(F)F` [Example 20, 4-(5-cyano-1-methyl-1H-pyrrol-2-yl)-N,N-dimethyl-2-(trifluoromethyl)benzenesulfonamide] it is 81.9 nM.

For the molecule `CN(C)c1cc(-c2ccc(C#N)n2C)ccc1S(=O)(=O)N(C)C` [Example 58, 4-(5-cyano-1-methyl-1H-pyrrol-2-yl)-2-(dimethylamino)-N,N-dimethylbenzenesulfonamide], the half-inhibitory concentration (IC50) was 25.9 nM. As to `Cn1c(C#N)ccc1-c1ccc(S(=O)(=O)NCC2CC2)cc1F` [Example 39, 4-(5-cyano-1-methyl-1H-pyrrol-2-yl)-N-(cyclopropylmethyl)-3-fluorobenzenesulfonamide], the IC50 is 40.4 nM.

Still in this assay, the particulars now being: T47D alkaline phosphatase assay; antagonist mode in the presence of 1 nM progesterone; 24 hours.
On to `Cn1c(C#N)ccc1-c1cc(F)c(S(=O)(=O)NC2CC2)cc1F` [Example 61, 4-(5-cyano-1-methyl-1H-pyrrol-2-yl)-N-cyclopropyl-2,5-difluorobenzenesulfonamide], for which the “Active Dose” value came out at 30 nM.
